These results are taken from patent publication US6329378A, “Hydrazone, hydrazine and thiosemicarbazone derivatives as antifungal agents” (Anadys Pharmaceuticals, Inc., priority 2000, dated 2001).

Values after ≈ are worked out from the molar mass of the structure shown.

The first assay deals with A. Nidulans. Nature of the assay: MIC, broth microdilution (NCCLS M27-A), A. nidulans. The class given is cell-based. To be noted: Aspergillus nidulans, 35° C., 48 hours. How it is done: (§1) Compounds of the invention were tested for antifungal susceptibility using broth microdilution assay established by the National Committee for Clinical Laboratory Standards, in NCCLS Document M27-A, which is hereby incorporated by reference. Minimum inhibitory concentrations (MICs) and minimum fungicidal concentrations (MFCs) were measured.
Filamentous fungi (Aspergillus spp.) is cultured on PDA plates in a 35° C. incubator. Inoculum of Aspergillus for susceptibility testing is prepared from plates incubated at 35° C. for 5 days. Colonies are covered with 5 ml of sterile 0.85% saline (8.5 g/liter NaCl) and gently rocked for 10-15 minutes. To dislodge the conidia, an automatic pipettor is used to gently wash over the colonies. The saline solution is removed from the plate and the heavy particles are allowed to settle for 3-5 minutes. The upper suspension is removed and vortexed for 15 sec. The turbidity of the solution is determined by measuring the absorbance in a spectrophotometer (Shimadzu UV-1201S UV-VIS Spectrophotometer) set at 600 nm. An absorbance value between 0.1 and 0.4 is required for an accurate reading.
The cell suspension is diluted with the appropriate medium (typically RPMI-1640) to OD600 =0.0004. The final suspension should contain approximately 3×10^3 cfu per ml (this is a 2×concentrationinoculum). Two 100 μl aliquots of this dilution are spread on SDA plates and incubated at 35° C. for 1-2 days to determine the precise number of colony forming units. An acceptable range for the inoculum (2×) is 1-5×10^3 cfu/ml (100-500 for 100 μl). Following two-fold dilution of the inoculum with compound, the final concentration of cells will be 0.5-2.5×10^3 per ml. The inoculum is kept at 4° C. and used within a few hours.
(§2) Stock solutions and concentrations tested will vary from compound to compound. In general, though, stock solutions of 12.8 mg/ml in DMSO (Sigma D-8779) are prepared. This will allow for a 128 μg/ml starting test concentration containing 1% DMSO. Stock solutions are stored at -20° C. and dilutions for antifungal testing are freshly prepared before each assay.
(§3) Stock solutions of Amphotericin B and Itraconazole are prepared at 1.6 mg/ml in DMSO. Amphotericin B is sold as a powder that is approximately 80% Amphotericin B. Stock solutions are made accordingly (2.0 mg of powder for a 1 ml solution of 1.6 mg/ml Amphotericin B).
(§4) Both of these (control and test compounds) represent 1:50 dilutions. For an assay with three fungal strains, 40 microliters of a stock solution are diluted to 2.0 ml with room temperature medium.
(§5) Antifungal susceptibility tests are setup in polystyrene, 96-well, flat bottom plates (Costar 9017). To every well in columns 2-12 is added 100 microliters of media. An electronic multichannel (12) pipettor with no tip on channel one is used. To every well in column one is added 200 microliters of diluted compound (32 μg/ml for Amphotericin B and Itraconazole controls, 256 μg/ml for test compounds, 100-fold dilution for natural product extracts). A manual multichannel (8) pipettor is then used to set up a series of 2-fold dilutions. 100 microliters is removed from each well of column one and mixed with 100 microliters in column 2. This is done successively (column two to column three etc.) to produce a set of 11 serial dilutions (column 12 is a drug free control).
(§6) To every well in two rows, 100 μl of inoculum (2×) of a single strain is added. To the final two rows on the plate (G & H), only media is added. Addition of inoculum is best accomplished using an electronic multichannel (12) pipettor. This setup (see below) creates a starting cell density of […] (100-500 per well) and drug concentration ranging from 16 μg/ml to […] for controls (Amphotericin B and Itraconazole), 128 μg/ml to 0.125 μg/ml for pure test compounds, and 200 to 204, 800-fold dilutions for natural product extracts.
A word on the MIC: it is the smallest concentration in the dilution series that meets the test's criterion for growth inhibition. The molecule `Oc1cc(OCc2ccccc2)ccc1/C=N/NC(=S)Nc1cccc(C(F)(F)F)c1` [(42)] had an MIC of 0.25 µg/mL (≈ 0.561 µM).

Molecule `CCN(CC)c1ccc(/C=N/NC(=S)Nc2cccc(C(F)(F)F)c2)c(O)c1` [(48)] yielded an MIC of 0.5 µg/mL (≈ 1.22 µM).

As for `Oc1cc(N2CCOCC2)ccc1/C=N/NC(=S)Nc1cccc(C(F)(F)F)c1` [(49)], the MIC was found to be 0.5 µg/mL (≈ 1.18 µM).

A further assay has as its system S. serevisiae. In words: MIC, broth microdilution (NCCLS M27-A), S. cerevisiae. The following applies: Saccharomyces cerevisiae, 48 h, read-out: MIC S. serevisiae. The assay is classed as cell-based, Saccharomyces cerevisiae. Here is the method: as §1
(§7) Yeasts (Saccharomyces cerevisiae and Candida albicans) are cultured on SDA plates in a 35° C. incubator. Strains on SDA plates are stored at 4° C. and used as working stock cultures.
(§8) Inoculum for susceptibility testing is prepared from fresh 24 hour cultures. 5-10 colonies are scraped from the plate and suspended in three milliliters of sterile 0.85% saline (8.5 g/liter NaCl). The cell density of the solution is determined by measuring the absorbance in a spectrophotometer (Shimadzu UV-1201S UV-VIS Spectrophotometer) set at 600 nm. An absorbance value between 0.1 and 0.4 is required for an accurate reading.
(§9) For Candida albicans strains ATCC 10231, 1.0 OD600 unit is approximately 10^7 cells per ml. For Saccharomyces cerevisiae strain CTY552, 1.0 OD600 unit is slightly less than 10^7 cells per ml. Cell suspensions are diluted with the appropriate medium (typically RPMI-1640) to OD600 =0.0003 for Candida and OD600 =0.0004 for Saccharomyces. The diluted suspension contains approximately 3×10^3 cells per ml (this is a 2×concentration inoculum). Two 100 μl aliquots of this dilution are spread on SDA plates and incubated at 35° C. for 1-2 days to determine the precise number of colony forming units. An acceptable range for the inoculum (2×) is 1-5×10^3 cfu/ml (100-500 for 100 μl). Following two-fold dilution of the inoculum with compound, the final concentration of cells will be 0.5-2.5×10^3 per ml. The inoculum is kept at 4° C. and used within a few hours.
as §2, §3
(§10) Stock solutions of control compounds (1.6 mg/ml, Amphotericin B or Itraconazole) are initially diluted in medium to a concentration of 32 μg/ml while stock solutions of test compounds (typically 12.8 mg/ml) are diluted to 256 μg/ml. Both of these (control and test compounds) represent 1:50 dilutions. For an assay with three fungal strains, 40 microliters of a stock solution are diluted to 2.0 ml with room temperature medium.
as §5
(§11) To every well in two rows, 100 μl of inoculum (2×) of a single strain is added. To the final two rows on the plate (G & H), only media is added. Addition of inoculum is best accomplished using an electronic multichannel (12) pipettor. […]
(Dilution methods test growth across graded concentrations, often in twofold steps.)
Regarding `Oc1cc(OCc2ccccc2)ccc1/C=N/NC(=S)Nc1cccc(C(F)(F)F)c1` [(42)], the MIC is 0.25 µg/mL (≈ 0.561 µM).

With `CCN(CC)c1ccc(/C=N/NC(=S)Nc2cccc(C(F)(F)F)c2)c(O)c1` [(48)], the MIC came to 0.5 µg/mL (≈ 1.22 µM).

As for `Oc1cc(N2CCOCC2)ccc1/C=N/NC(=S)Nc1cccc(C(F)(F)F)c1` [(49)], the MIC worked out at 1 µg/mL (≈ 2.36 µM).

In the next assay the test system is C. albicans. In words: Minimum fungicidal concentration (MFC), C. albicans. The assay is classed as cell-based, Candida albicans. The following applies: Candida albicans; viability on SDA plate, 35° C. Here is the method: as §1, §7, §8, §9, §2, §3, §10, §5, §11
As usually defined, the MFC is the lowest tested concentration that kills the fungus rather than only halting it. Low readings indicate greater fungicidal potency, high ones weaker fungicidal potency. With `Oc1cc(OCc2ccccc2)ccc1/C=N/NC(=S)Nc1cccc(C(F)(F)F)c1` [(42)], the MFC is above 128 µg/mL.

Molecule `CCN(CC)c1ccc(/C=N/NC(=S)Nc2cccc(C(F)(F)F)c2)c(O)c1` [(48)] had an MFC above 128 µg/mL.

`Oc1cc(N2CCOCC2)ccc1/C=N/NC(=S)Nc1cccc(C(F)(F)F)c1` [(49)]: the MFC was above 128 µg/mL.

Another assay concerns C. albicans. Nature of the assay: MIC, broth microdilution (NCCLS M27-A), C. albicans. The class given is cell-based, Candida albicans. To be noted: Candida albicans, ATCC10231, 35° C., 48 hours, C. albicans ATCC 10231. How it is done: as §1, §7, §8, §9, §2, §3, §4, §5, §6
As for `Oc1cc(OCc2ccccc2)ccc1/C=N/NC(=S)Nc1cccc(C(F)(F)F)c1` [(42)], it took 0.25 µg/mL (≈ 0.561 µM) to inhibit growth (MIC).

In the case of `CCN(CC)c1ccc(/C=N/NC(=S)Nc2cccc(C(F)(F)F)c2)c(O)c1` [(48)], the MIC amounted to 1 µg/mL (≈ 2.44 µM).

`Oc1cc(N2CCOCC2)ccc1/C=N/NC(=S)Nc1cccc(C(F)(F)F)c1` [(49)] gave an MIC of 2 µg/mL (≈ 4.71 µM).
